Experimental findings from US11040949B2, “Compounds affecting pigment production and methods for treatment of bacterial diseases” (Versitech Limited, priority 2017, dated 2021) are described below.

The structures appear in SMILES notation.

Assay [1] has as its system MRSA USA 300 ATCC BAA-1717. Put plainly: Mouse (LD0-20) bacteremia model. It is filed as in vivo, BALB/c mice. The following applies: IM032 0.3-30 mg/kg PO BID for 7 days; sacrificed at 168 h (Day 7). On the procedure: Efficacy of IM032 in a Mouse (LD0-20) Bacteremia Model Infected with Methicillin-Resistant Staphylococcus (MRSA USA300) (BAA-1717)
A bacterial strain, USA 300 MRSA BAA-1717, was used to infect BALB/c (female). Test animals were intravenously (IV) inoculated with MRSA ATCC BAA-1717 at a target density of 1×10^6 CFU/mouse. Test substance, IM032 at 0, 0.3, 1, 3, 10, and 30 mg/kg, was administered orally (PO) twice daily (BID) for a total of 7 dosing days.
The reference agents, vancomycin at 3 mg/kg was administered IV once (QD) at 1 h after infection for 7 consecutive days.
With reference to FIG. 9, the animals were IV inoculated with MRSA USA 300 ATCC BAA-1717 at 1.02×10^6 CFU/mouse. IM032 at 0.3, 1, 3, 10, and 30 mg/kg were orally (PO) administrated twice daily (BID) at 1 and 7 h after the infection on Day 1, and then twice daily at 6-hour intervals in the next 6 days for a total of 7 days of dosing. Vancomycin, at 3 mg/kg, was administered intravenously (IV) at 1 h after the infection on Day 1 and then once a day in the next 6 days for a total of 7 days of dosing. […] Statistical significance compared to the respective vehicle control was determined by unpaired student t-tests. […]
With reference to FIG. 10, bacterial density in lung and liver were determined. […] Statistical significance compared to the respective vehicle control was determined by unpaired student t-tests. […]

The test system of the next assay is S. aureus SH1000. The experiment in a line: IM032 staphyloxanthin production inhibition. It is filed as cell-based. The following applies: Staphylococcus aureus, MSSA. On the procedure:
(§1) This study aimed to evaluate IM032 for its in vitro efficacy to inhibit the production of staphyloxanthin in different strains of S. aureus.
(§2) The negative control was dimethyl sulfoxide (DMSO) which was used to prepare stock solutions and dilutions; positive control in this test was S. aureus strain FPR3757 treated with IM032.
(§3) The test item was dissolved at 44.9 mg/mL in DMSO at 37° C., aliquoted into several tubes, and stored at −20° C. until use. On the day of testing, a stock solution was serially diluted to testing concentrations with DMSO. All solutions were vortexed and mixed with a pipette to achieve homogeneity immediately before dilution. A correction factor for purity was not applied to the test item preparations.
(§4) Each test item solution (6 μL) was combined with 0.6 mL of S. aureus culture in brain heart infusion broth (CFU per well=1×10^7). 12-wells repeats were performed for each concentration in 96-well 2-mL plates. The plates were then incubated in a shaker at 37° C., 250 rpm for 24 hours. The bacteria were centrifuged at 4,000 rpm for 10 min. Next, the bacteria from 4-wells were combined and were washed twice with PBS. Staphyloxanthin was extracted with 300 μL of methanol in a water bath at 60° C. for 1 hour. After centrifugation, 100 μL of supernatant was transferred to a 96-well cell culture plate and OD450 was measured. The relative pigment production at each tested concentration was calculated as follows: […]
(§5) The IC50 for each test was determined based on the calculated inhibition ratio from above with Prism 6.0 by employing a non-linear regression (four parameters) fitting method with assigned bottom and top at 0.05 and 0.95 respectively. The IC50 presented is the best-fit value.
(§6) S. aureus strains (ATCC29213, HG003, Mu3, SH1000, and COL) were treated with IM032 at final concentrations of 4,000, 1,000, 250, 63, 16, 4 and 1 nM (FIG. 7A). S. aureus strains (JE2, USA300-3, LAC, ST239III and Newman) were treated with IM032 at final concentrations of 250, 63, 16, 4, 1, 0.2 and 0.06 nM (FIG. 7B). […] The determined IC50 values of the tested strains range from 1.2 to 70 nM (Tables 6 and 7).

For another assay, the system named is S. aureus JE2. The experiment in a line: IM032 staphyloxanthin production inhibition. It is filed as cell-based. Particulars: Staphylococcus aureus. On the procedure: as §1, §2, §3, §4, §5, §6
In another assay the test system is S. aureus ST239III. The experiment in a line: IM032 staphyloxanthin production inhibition. It is filed as cell-based. The following applies: Staphylococcus aureus, MRSA. On the procedure:
as §1, §2, §3, §4, §5, §6

A further assay concerns S. aureus LAC. Put plainly: IM032 staphyloxanthin production inhibition. It is filed as cell-based. The following applies: Staphylococcus aureus. On the procedure: as §1, §2, §3, §4, §5, §6
Another assay deals with S. aureus COL. The experiment in a line: IM032 staphyloxanthin production inhibition. It is filed as cell-based. Particulars: Staphylococcus aureus, MRSA. On the procedure:
as §1, §2, §3, §4, §5, §6

The subject of the next assay is S. aureus USA300-3. The experiment in a line: IM032 staphyloxanthin production inhibition. It is filed as cell-based. The following applies: Staphylococcus aureus. On the procedure: as §1, §2, §3, §4, §5, §6

A word on the IC50: it is the point on the concentration scale where inhibition reaches its midpoint. Lower therefore signals greater potency. Consider `O=C(/C=C/c1ccccc1Br)Nc1ccc(S(=O)(=O)N2CCCCC2)cc1` [NP16-XL-016, 3-(6-bromophenyl)-N-[4-(1-piperidine-1-sulfonyl)phenyl]-acrylamide], for which, in assay [1], the “bacteria count across major organs” value was “statistically significant reduction in bacteria count across major organs”. For the same molecule, the IC50 came to 70 nM with S. aureus SH1000 (Table 6); 70.5 ± 6 nM in the assay with S. aureus SH1000 (Table 8); 37.7 ± 4 nM in the assay with S. aureus JE2 (/ USA300); 26 nM with S. aureus JE2 (MRSA); 19 nM with S. aureus ST239III (Table 7, ST239III, MRSA (HA)); 16.3 ± 8 nM in the assay with S. aureus ST239III (Table 8, Clinical isolate ST239III, HA-MRSA). For the same molecule, the concentration for half-maximal inhibition (IC50) in the assay on S. aureus LAC (MRSA) was 27 nM; in the assay with S. aureus LAC (MRSA / USA300), 43.6 ± 5 nM; in the assay on S. aureus COL (Table 6, MRSA (HA)), 1.2 nM; in the assay with S. aureus COL (Table 8, HA-MRSA) it was 0.9 ± 1 nM; in the assay on S. aureus USA300-3 (MRSA / USA300, Table 7, USA300-3, MRSA (HA)), 27 nM; with S. aureus USA300-3 (MRSA / USA300, Table 8, USA300-3, HA-MRSA), 42.8 ± 6 nM.
